# Experimental data as given in PubChem BioAssay AID2060886 (Molecular Pharmacology Branch, DTP, NCI, 2025).
# pIC50: −log10 of the molar value.
# Test system: 653999-131-R-J2-PDC complex spheroids, growth inhibition
# Assay: Anticancer human tumor 653999-131-R-J2-PDC patient-derived lung adenocarcinoma cell line growth inhibition [RAS]
# Settings: for pIC50: curve of first compound; for viability, T/C: stronger effect = lower value
# Procedure, shortened: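 Tumour cells grown as complex spheroids with HUVEC endothelial cells and mesenchymal stem cells, treated with RAS pathway inhibitor combinations. Each agent spans half-log steps from near clinical Cmax, or 10 microM where Cmax is unknown.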
# 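Also: spheroids exposed to the agents for seven days before the readout.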
smiles,measurement,setting,value
C=CC(=O)N1CCN(c2nc(OCC3CCCN3C)nc3c(F)c(-c4nc(N)cc(C)c4C(F)(F)F)c(Cl)cc23)C(C)C1 (centres undefined) + CCn1c(-c2cc(N3CCN(C)CC3)cnc2C(C)OC)c2c3cc(ccc31)-c1csc(n1)CC(NC(=O)C1CC1C)C(=O)N1CCCC(N1)C(=O)OCC(C)(C)C2,pIC50,second compound 0.000949 µM,< 6.00
same,pIC50,second compound 0.003 µM,< 6.00
same,pIC50,second compound 0.00949 µM,7.49
same,pIC50,second compound 0.03 µM,> 8.50
same,pIC50,second compound 0.0949 µM,> 8.50
same,pIC50,second compound 0.3 µM,> 8.50
same,"viability, T/C","second compound 0.000949 µM, first compound 0.00316 µM",83.2%
same,"viability, T/C","second compound 0.000949 µM, first compound 0.01 µM",82.7%
same,"viability, T/C","second compound 0.000949 µM, first compound 0.0316 µM",82.1%
same,"viability, T/C","second compound 0.000949 µM, first compound 0.1 µM",78.4%
same,"viability, T/C","second compound 0.000949 µM, first compound 0.316 µM",92%
same,"viability, T/C","second compound 0.000949 µM, first compound 1 µM",86.1%
same,"viability, T/C","second compound 0.003 µM, first compound 0.00316 µM",57.9%
same,"viability, T/C","second compound 0.003 µM, first compound 0.01 µM",63%
same,"viability, T/C","second compound 0.003 µM, first compound 0.0316 µM",59.1%
same,"viability, T/C","second compound 0.003 µM, first compound 0.1 µM",65.7%
same,"viability, T/C","second compound 0.003 µM, first compound 0.316 µM",63.3%
same,"viability, T/C","second compound 0.003 µM, first compound 1 µM",75.6%
same,"viability, T/C","second compound 0.00949 µM, first compound 0.00316 µM",50%
same,"viability, T/C","second compound 0.00949 µM, first compound 0.01 µM",57.5%
same,"viability, T/C","second compound 0.00949 µM, first compound 0.0316 µM",50.2%
same,"viability, T/C","second compound 0.00949 µM, first compound 0.1 µM",40.4%
same,"viability, T/C","second compound 0.00949 µM, first compound 0.316 µM",40.2%
same,"viability, T/C","second compound 0.00949 µM, first compound 1 µM",42.6%
same,"viability, T/C","second compound 0.03 µM, first compound 0.00316 µM",46.5%
same,"viability, T/C","second compound 0.03 µM, first compound 0.01 µM",35.3%
same,"viability, T/C","second compound 0.03 µM, first compound 0.0316 µM",43.2%
same,"viability, T/C","second compound 0.03 µM, first compound 0.1 µM",32%
same,"viability, T/C","second compound 0.03 µM, first compound 0.316 µM",37.3%
same,"viability, T/C","second compound 0.03 µM, first compound 1 µM",34.9%
same,"viability, T/C","second compound 0.0949 µM, first compound 0.00316 µM",28.9%
same,"viability, T/C","second compound 0.0949 µM, first compound 0.01 µM",29.4%
same,"viability, T/C","second compound 0.0949 µM, first compound 0.0316 µM",26.7%
same,"viability, T/C","second compound 0.0949 µM, first compound 0.1 µM",38.9%
same,"viability, T/C","second compound 0.0949 µM, first compound 0.316 µM",38.6%
same,"viability, T/C","second compound 0.0949 µM, first compound 1 µM",35.9%
same,"viability, T/C","second compound 0.3 µM, first compound 0.00316 µM",29.5%
same,"viability, T/C","second compound 0.3 µM, first compound 0.01 µM",27.5%
same,"viability, T/C","second compound 0.3 µM, first compound 0.0316 µM",21.8%
same,"viability, T/C","second compound 0.3 µM, first compound 0.1 µM",32.6%
same,"viability, T/C","second compound 0.3 µM, first compound 0.316 µM",28.3%
same,"viability, T/C","second compound 0.3 µM, first compound 1 µM",26.1%
CC(C)NCC(C(=O)N1CCN(c2ncnc3c2C(C)CC3O)CC1)c1ccc(Cl)cc1 (centres undefined) + C#Cc1c(F)ccc2cc(O)cc(-c3ncc4c(N5CC6CCC(C5)N6)nc(OCC56CCCN5CC(F)C6)nc4c3F)c12,pIC50,second compound 0.0316 µM,5.91
same,pIC50,second compound 0.1 µM,6.23
same,pIC50,second compound 0.316 µM,6.72
same,pIC50,second compound 1 µM,7.07
same,pIC50,second compound 3.16 µM,> 7.50
same,pIC50,second compound 10 µM,> 7.50
same,"viability, T/C","second compound 0.0316 µM, first compound 0.0316 µM",109%
same,"viability, T/C","second compound 0.0316 µM, first compound 0.1 µM",84.2%
same,"viability, T/C","second compound 0.0316 µM, first compound 0.316 µM",72%
same,"viability, T/C","second compound 0.0316 µM, first compound 1 µM",53.6%
same,"viability, T/C","second compound 0.0316 µM, first compound 3.16 µM",35%
same,"viability, T/C","second compound 0.0316 µM, first compound 10 µM",28.9%
same,"viability, T/C","second compound 0.1 µM, first compound 0.0316 µM",97.6%
same,"viability, T/C","second compound 0.1 µM, first compound 0.1 µM",55.7%
same,"viability, T/C","second compound 0.1 µM, first compound 0.316 µM",70.4%
same,"viability, T/C","second compound 0.1 µM, first compound 1 µM",43.6%
same,"viability, T/C","second compound 0.1 µM, first compound 3.16 µM",37.6%
same,"viability, T/C","second compound 0.1 µM, first compound 10 µM",32.1%
same,"viability, T/C","second compound 0.316 µM, first compound 0.0316 µM",56.5%
same,"viability, T/C","second compound 0.316 µM, first compound 0.1 µM",62.6%
same,"viability, T/C","second compound 0.316 µM, first compound 0.316 µM",38.8%
same,"viability, T/C","second compound 0.316 µM, first compound 1 µM",38.9%
same,"viability, T/C","second compound 0.316 µM, first compound 3.16 µM",26.2%
same,"viability, T/C","second compound 0.316 µM, first compound 10 µM",20.5%
same,"viability, T/C","second compound 1 µM, first compound 0.0316 µM",64.7%
same,"viability, T/C","second compound 1 µM, first compound 0.1 µM",40.8%
same,"viability, T/C","second compound 1 µM, first compound 0.316 µM",45%
same,"viability, T/C","second compound 1 µM, first compound 1 µM",21%
same,"viability, T/C","second compound 1 µM, first compound 3.16 µM",19.4%
same,"viability, T/C","second compound 1 µM, first compound 10 µM",14%
same,"viability, T/C","second compound 3.16 µM, first compound 0.0316 µM",36.9%
same,"viability, T/C","second compound 3.16 µM, first compound 0.1 µM",43.9%
same,"viability, T/C","second compound 3.16 µM, first compound 0.316 µM",27.9%
same,"viability, T/C","second compound 3.16 µM, first compound 1 µM",19%
same,"viability, T/C","second compound 3.16 µM, first compound 3.16 µM",12.7%
same,"viability, T/C","second compound 3.16 µM, first compound 10 µM",9.87%
same,"viability, T/C","second compound 10 µM, first compound 0.0316 µM",23.3%
same,"viability, T/C","second compound 10 µM, first compound 0.1 µM",23.3%
same,"viability, T/C","second compound 10 µM, first compound 0.316 µM",22.8%
same,"viability, T/C","second compound 10 µM, first compound 1 µM",14.1%
same,"viability, T/C","second compound 10 µM, first compound 3.16 µM",9.37%
same,"viability, T/C","second compound 10 µM, first compound 10 µM",5.49%
